Measured values: patent publication US4822815A, “Dioxane hexenoic acids” (Imperial Chemical Industries PLC, priority 1985, dated 1989)

Tests used:
[1] = biological target: T1, U46619 stimulated platelet aggregation (Homo sapiens, UniProt P21731); experiment: Test (b) blood platelet aggregation test (human citrated platelet-rich plasma, U46619); format: cell-based; conditions: U46619 stimulated aggregation of human platelets; averaged over several concentrations
T1 construct: human, citrated, platelet-rich plasma; endogenous in cells; host or cells: human platelets in citrated platelet-rich plasma
T1 sequence (P21731 1-343): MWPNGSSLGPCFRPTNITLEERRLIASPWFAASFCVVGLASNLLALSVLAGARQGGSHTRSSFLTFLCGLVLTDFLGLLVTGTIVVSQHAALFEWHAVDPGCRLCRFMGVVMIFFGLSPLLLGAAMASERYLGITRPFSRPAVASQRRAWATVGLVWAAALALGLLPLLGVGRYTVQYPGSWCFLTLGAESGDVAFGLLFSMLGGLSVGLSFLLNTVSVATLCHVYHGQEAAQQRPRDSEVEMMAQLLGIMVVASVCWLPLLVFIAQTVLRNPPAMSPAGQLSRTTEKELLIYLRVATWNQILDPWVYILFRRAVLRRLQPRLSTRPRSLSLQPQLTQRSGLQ
Description: (b) A blood platelet aggregation test based on that described by Born (Nature, 1962, 194, 927-929) and involving:
(i) aggregating human, citrated, platelet-rich plasma by addition of the TXA2 mimetic agent U46619 so that a dose-response curve is generated,
(ii) generating a dose-response curve for U46619 stimulated platelet aggregation in the presence of decreasing amounts of test compound (generally in the range 10^-5 M to 10^-10 M); and
(iii) calculating a KB value indicating potency of TXA2 antagonism for the test compound, averaged over several concentrations, from the calculated 50% response value for U46619 aggregation in the presence and absence of test compound; and […]

[2] = system: U46619 induced bronchoconstriction; experiment: Test (c) bronchoconstriction test, Konzett-Rossler anaesthetised guinea-pig model; format: in vivo; conditions: 2 hours after oral dosing at 0.05 mg/kg
Description: (c) a bronchoconstriction test involving measuring the inhibition by a test compound of the broncho-constriction induced in the Konzett-Rossler, anaesthetised guinea-pig model (as modified by Collier and James, Brit.J.Pharmacol., 1967, 30, 283-307) by intravenous administration of the TXA2 mimetic agent, U46619 and involving:
(i) obtaining a cumulative dose-response curve to U46619 induced bronchoconstriction by intravenous administration of constant volumes of increasing concentrations of U46619 (0.2-4 μg/kg) in physiological saline solution and expressing bronchoconstriction as the maximum of that theoretically obtainable with no air flow to the test animal;
(ii) generating a cumulative dose-response curve to U46619 induced bronchoconstriction at 30 minute intervals for 3 hours after oral dosing of test compound; and
(iii) calculating a dose-ratio for the test compound (that is the ratio of concentration of U46619 required to cause 50% bronchoconstriction in the presence and absence of test compound) indicating the potency of TXA2 antagonism.

TXA2 [3] = experiment: TXA2 antagonism in general (statement in words)
Description: (§1) As stated earlier, the acids of formula I are antagonists of one or more of the actions of TXA2, for example certain of its actions on blood platelets, the vasculature and/or the lung.

TXA2 [4] = experiment: Test (a) rabbit aortal strip model, U46619 as agonist; format: cell-based; conditions: ±0.05
Procedure: as §1
(a) The rabbit aortal strip model devised by Piper and Vane (Nature, 1969, 223, 29-35) using as agonist a freshly prepared sample of TXA2, generated by addition of arachidonic acid (25 μg) to citrated, platelet rich rabbit plasma (250 μl) and allowing the mixture to aggregate fully over 90 seconds before use; alternatively the TXA2 mimetic agent known as U46619 (described by R L Jones et alia in "Chemistry, Biochemistry and Pharmacological Activity of Prostanoids" edited by S M Roberts and F Scheinmann, at page 211; Pergamon Press, 1979) may be used as the agonist;

[5] = system: hypertensive effect of U46619; experiment: Test (d) hypertensive effect of U46619 in anaesthetised rats; format: in vivo, rat (Alderley Park strain)
Procedure: (d) Male rats (Alderley Park strain) are anaesthetised with sodium pentobarbital and blood pressure is monitored at the carotid artery. The TXA2 mimetic agent is administered intravenously via the jugular vein and an ED50 (dose necessary to produce 50% of the maximum hypertensive effect) is established (n=3). [The ED50 for U46619 is approximately 5 μg/kg.] A test compound is then administered either intravenously (via the jugular vein) or orally (via a cannula) directly into the stomach and the animal challenged with an ED50 dose of U46619, five minutes after dosing with test compound and then successively every ten minutes until the hypertensive effect of U46619 is no longer blocked.

Kb [1] [nM] | SMILES | dose ratio [2] | antagonism of one or more of the actions of TXA2 (in words) (TXA2 [3]) | pA2 (U46619) (TXA2 [4]) | duration of inhibition of the hypertensive effect of U46619 ([5]; about 80% inhibition, oral dose of 0.05 mg/kg) | inhibition of the hypertensive effect of U46619 ([5]; oral dose of 0.05 mg/kg, for more than 1 hour) | ED50 ([5]; Rattus norvegicus, intravenous via the jugular vein, n=3, read-out: ED50 (dose necessary to produce 50% of the maximum hypertensive effect)) [µg/kg]
13.8 | O=C(O)CC/C=C\C[C@H]1CO[C@@H](c2ccsc2)O[C@H]1c1ccccc1O (relative stereo) [Example 8, 4(Z)-6-([2,4,5-cis-]-4-o-hydroxy-phenyl-2-[3-thienyl]-1,3-dioxan-5-yl)hexenoic acid] | 3 | especially potent antagonists | 7.6 | – | – | –
7.54 | O=C(O)CC/C=C\C[C@H]1CO[C@@H](c2ccc([N+](=O)[O-])s2)O[C@H]1c1ccccc1O (relative stereo) [Example 4] | > 100 | especially potent antagonists | 8.3 | more than 1 hour | about 80% | –
– | CCCCC[C@H](O)/C=C/[C@@H]1[C@@H](C/C=C\CCCC(=O)O)[C@H]2CO[C@@H]1C2 [Example U46619, reference compound] | – | – | – | – | – | ~5
– | N#Cc1ccc([C@@H]2OC[C@H](C/C=C\CCC(=O)O)[C@H](c3ccccc3O)O2)s1 (relative stereo) [Example 9, 4(2)-6([2,4,5-cis]-2-[5-cyano-2-thienyl]-4-o-hydroxphenyl-1,2-dioxan-5-yl)hexenoic acid] | – | especially potent antagonists | – | – | – | –
